Read-outs that look alike come from different tables or passages of the source.
How the values were obtained:
[1] = test system: Magnaporthe grisea (Pyricularia oryzae—PYRIOR); assay: microbe, parasite or virus in culture; type: cell-based; conditions: Pyricularia oryzae, read-out: PYRIOR in vitro Growth Inhibition
[2] = test system: Mycosphaerella graminicola (Septoria tritici—SEPTTR); assay: In vitro fungal growth inhibition, Mycosphaerella graminicola (SEPTTR); type: cell-based; conditions: Zymoseptoria tritici, read-out: SEPTTR in vitro Growth Inhibition
[3] = test system: Phytophthora infestans—PHYTIN; assay: whole plant or invertebrate; type: in vivo; conditions: for pest or weed control at 100 ppm: Phytophthora, in Solanum lycopersicum, 24 h, read-out: PHYTIN in vivo 1 Day Protectant
[4] = test system: Phytophthora infestans (PHYTIN); assay: microbe, parasite or virus in culture; type: cell-based; conditions: Phytophthora infestans, read-out: PHYTIN in vitro Growth Inhibition
[5] = test system: Puccinia recondita—PUCCRT; assay: Brown Rust of Wheat, in vivo whole plant, 24 Hour Protectant; conditions: for pest or weed control at 100 ppm: Puccinia, read-out: PUCCRT in vivo 1 Day Protectant
[6] = test system: Stagonospora nodorum (Leptosphaeria nodorum—LEPTNO); assay: In vitro fungal growth inhibition, Stagonospora nodorum (LEPTNO); type: cell-based; conditions: Leptosphaeria, read-out: LEPTNO in vitro Growth Inhibition
[7] = test system: Ustilago maydis (USTIMA); assay: microbe, parasite or virus in culture; type: cell-based; conditions: Mycosarcoma maydis, read-out: USTIMA in vitro Growth Inhibition
[8] = test system: Leptosphaeria nodorum—LEPTNO; assay: Glume Blotch of Wheat, in vivo whole plant, 24 Hour Protectant; conditions: for pest or weed control at 100 ppm: Leptosphaeria, read-out: LEPTNO in vivo 1 Day Protectant
[9] = test system: Septoria tritici—SEPTTR; assay: Leaf Blotch of Wheat, in vivo whole plant, 24 Hour Protectant; conditions: for pest or weed control at 100 ppm: Zymoseptoria tritici, 24 h, read-out: SEPTTR in vivo 1 Day Protectant
[10] = test system: Erysiphe graminis—ERYSGT; assay: Powdery Mildew of Wheat, in vivo whole plant, 24 Hour Protectant; conditions: Erysiphe, read-out: ERYSGT in vivo 1 Day Protectant
[11] = test system: Rhizoctonia solani (RHIZSO); assay: microbe, parasite or virus in culture; type: cell-based; conditions: Rhizoctonia solani, read-out: RHIZSO in vitro Growth Inhibition
[12] = 100 ppm spray, 24 hour protectant, wheat, control of fungal infection vs untreated plants
[13] = 100 ppm spray, wheat, 24 hour protectant, control of fungal infection vs untreated plants

Compound	inhibition at 25 ppm [1] [%]	inhibition at 25 ppm ([2]; 25 ppm in growth medium) [%]	melting point	pest or weed control at 100 ppm [3] [%]	inhibition at 25 ppm [4] [%]	pest or weed control at 100 ppm [5, 12] [%]	inhibition at 25 ppm ([6]; 25 ppm in growth medium) [%]	inhibition at 25 ppm [7] [%]	pest or weed control at 100 ppm [8, 12] [%]	pest or weed control at 100 ppm [9, 12] [%]	pest or weed control at 100 ppm [10, 12] [%]	inhibition at 25 ppm [11] [%]	other results
COc1ccnc(C(=O)N[C@@H]2CCCC[C@H]2SC)c1O [Compound 273]	< 80	< 80	113 to 115 °C	< 25	< 80	< 25	< 80	< 80	25 to 74	25 to 74	< 25	< 80	–
COc1ccnc(C(=O)NC2c3ccccc3CC2(C)C)c1O (stereo not drawn) [Compound 284]	< 80	< 80	122 to 128 °C	< 25	< 80	25 to 74	< 80	< 80	25 to 74	25 to 74	< 25	< 80	–
COc1ccnc(C(=O)NC2CCc3ccccc3C2=O)c1O (stereo not drawn) [Compound 285]	< 80	< 80	174 to 179 °C	< 25	< 80	< 25	< 80	< 80	25 to 74	25 to 74	< 25	> 80	–
COc1ccnc(C(=O)N[C@H]2C(O)[C@@H]3CC[C@H]2[C@@H]2CCCC[C@@H]23)c1O (stereo partly drawn) [Compound 293]	< 80	< 80	143 to 160 °C (dec.)	< 25	< 80	< 25	< 80	< 80	25 to 74	25 to 74	< 25	< 80	–
COc1ccnc(C(=O)NC2CCN(Cc3ccccc3)CC2)c1O.O=C(O)/C=C\C(=O)O [Compound 305]	< 80	–	145 to 147 °C	–	< 80	–	–	< 80	–	–	–	< 80	inhibition at 25 ppm [2]: < 80%; PHYTIN in vivo 1 Day Protectant ([3]; 100 ppm spray, 24 hour protectant, tomato, control of fungal infection vs untreated plants): + +; pest or weed control at 100 ppm ([5]; 24 h): < 25%; inhibition at 25 ppm [6]: < 80%; pest or weed control at 100 ppm ([8]; 24 h): < 25%; pest or weed control at 100 ppm [9]: < 25%; pest or weed control at 100 ppm ([10]; 24 h): < 25%
COc1ccnc(C(=O)NC2CCN(Cc3ccc(C)cc3)CC2)c1O [Compound 306]	< 80	< 80	150 to 152 °C	< 25	< 80	< 25	< 80	< 80	< 25	25 to 74	< 25	< 80	–
Br.COc1ccnc(C(=O)NC2C[C@@H](Cc3ccccc3)O[C@@H](C)C2)c1O (stereo partly drawn) [Compound 311]	< 80	–	156 to 158 °C	< 25	< 80	–	–	< 80	–	–	–	< 80	inhibition at 25 ppm [2]: < 80%; pest or weed control at 100 ppm ([5]; 24 h): 25 to 74%; inhibition at 25 ppm [6]: < 80%; pest or weed control at 100 ppm ([8]; 24 h): 25 to 74%; SEPTTR in vivo 1 Day Protectant ([9]; in vivo): + +; pest or weed control at 100 ppm ([10]; 24 h): < 25%
COc1ccnc(C(=O)N[C@H]2CO[C@](C)(C(C)CC3=C(C)CCCC3(C)C)OC2)c1O (stereo partly drawn) [Compound 319]	< 80	< 80	139 to 140 °C	< 25	< 80	–	< 80	< 80	< 25	25 to 74	25 to 74	< 80	PUCCRT in vivo 1 Day Protectant [5, 12]: + +
COc1ccnc(C(=O)NC2CC3OC2C(C)C(OC(=O)C(C)C)C3C)c1O (stereo not drawn) [Compound 320]	< 80	< 80	108.5 to 109.5 °C	< 25	< 80	< 25	< 80	< 80	25 to 74	25 to 74	< 25	< 80	–
COc1ccnc(C(=O)NC2CSCC(c3ccccc3)C2)c1O (stereo not drawn) [Compound 324]	< 80	> 80	141 to 143 °C	< 25	> 80	25 to 74	> 80	> 80	–	25 to 74	25 to 74	> 80	LEPTNO in vivo 1 Day Protectant [8, 12]: + +
COc1ccnc(C(=O)NC2COC(=O)C[C@H](NC(=O)OCc3ccccc3)C(=O)OC2)c1O (stereo partly drawn) [Compound 376]	< 80	< 80	190 to 192 °C	< 25	< 80	–	< 80	< 80	–	–	–	< 80	pest or weed control at 100 ppm [5, 13]: < 25%; pest or weed control at 100 ppm [8, 13]: 25 to 74%; pest or weed control at 100 ppm [9, 13]: 25 to 74%; pest or weed control at 100 ppm [10, 13]: 25 to 74%

Source: patent publication US6706740B2, “Fungicidal heterocyclic aromatic amides and their compositions, methods of use and preparation” (Dow AgroSciences LLC, priority 1999, dated 2004)
